Patent US5051419A, “Prevention or elimination of mycoplasma contamination of animal or plant cell cultures” (Dainippon Pharmaceutical Co., Ltd., priority 1988, dated 1991)
Converted amounts (≈) assume the structure as drawn.

What was measured:
[1] = test system: M. orale CH19299; experiment: Anti-mycoplasmal activity (MIC), agar-dilution method; assay type: cell-based, Mycoplasma orale; conditions: Metamycoplasma orale; agar dilution; M. orale CH19299; read-out: MIC
Experimental: (§1) The minimum growth inhibitory concentrations (MIC; μg/ml) of the test chemicals were measured by the agar-dilution method.
(§2) (1) Preparation of a mycoplasma suspension for inoculation
(§3) A stored frozen suspension of mycoplasma (0.2 to 0.3 ml) was inoculated in 2 to 3 ml of a preculture medium to be described later. It was serially diluted tenfold until the dilution ratio reached 10,000 times. These diluted solutions were cultivated at 37° C. for 2 to 7 days. A culture having the highest dilution ratio was selected from those cultures in which a color change of the media was noted as a result of mycoplasma growth. It was diluted to 100 times with the preculture medium to prepare a mycoplasma suspension for inoculation.
(§4) The following preculture media were used.
(§5) For other mycoplasma species, Chanock liquid medium (pH 6.8) containing 0.2% arginine was used.
(§6) (2) Preparation of agar plates containing the test chemicals
(§7) A 1,000 μg/ml aqueous solution of each test chemical was prepared (a difficultly-soluble chemical was dissolved by adding an equimolar amount of sodium hydroxide; the same applies hereinafter). The solution was used as a base solution and its twofold serial dilutions were prepared. The diluted solutions were pipetted on plastic petri dishes each in an amount of 1 ml. The Chanock agar medium (for Mycoplasma hyorhinis, 0.5% mucin was further added) described at page 9 of the above cited "Procedures for Isolation and Identification of Human, Animal and Plant Mycoplasmas" was heated and kept at 55° C. and put in an amount of 9 ml in each of the petri dishes containing the test chemicals and fully mixed with the test chemicals to prepare agar plates containing the test chemicals.
(§8) The mycoplasma suspension for inoculation prepared by the procedure described in section (1) was inoculated in an amount of about 3 microliters on each of the chemical-containing agar plates by means of a Cathra-replicator (3 mm pin). The plates on which Mycoplasma pneumoniae, Mycoplasma arginini, and Acholeplasma laidlawii and Mycoplasma hyorhinis were inoculated were tightly packed in a plastic bag together with the plasic petri dishes including water-immersed absorbent cotton. Mycoplasma pneumoniae was aerobically cultivated at 37° C. under highly humid conditions for 7 days; and Mycoplasma arginini and Acholeplasma laidlawii, for 2 days. The other mycoplasma species were cultivated anaerobically for 2 days by using a GasPak anaerobic system (BBL). After the cultivation, growth of mycoplasma were observed under an OLYMPUS microscope (20-100 X). The lowest concentration of the test chemical at which no growth of mycoplasma was noted is defined as MIC.

[2] = test system: M. salivarium PG20; experiment: as above; assay type: cell-based, Mycoplasma salivarium; conditions: Metamycoplasma salivarium; agar dilution; M. salivarium PG20; read-out: MIC
Experimental: as §1, §2, §3, §4, §5, §6, §7, §8

[3] = test system: M. hyorhinis BST7; experiment: as above; assay type: cell-based, Mycoplasma hyorhinis; conditions: Mesomycoplasma hyorhinis; agar dilution; M. hyorhinis BST7; read-out: MIC
Experimental: as §1, §2, §3, §4
For Mycoplasma hyorhinis, a liquid medium (pH 7.8) for isolation of Mycoplasma hyorhinis [Journal of the Japan Veterinary Medical Association,32, 34-38 (1979)] was used.
as §6, §7, §8

[4] = test system: mycoplasma; experiment: Anti-mycoplasmal activity (MIC, MMC), liquid dilution method, all species of Table 2 together; assay type: cell-based; conditions: in words
Experimental: The minimum growth inhibitory concentration (MIC, μg/ml) and minimum mycoplasmacidal concentration (MMC, μg/ml) of test chemicals were measured by the liquid dilution method. The method of measuring MIC in this example differs from that used in Test Example 1.
A 1,000 μg/ml aqueous solution of a test chemical was prepared, and diluted to 5 times with a preculture medium. The dilution (200 μg/ml) was serially diluted twofold with the same medium in a 8-well reservoir. Fifty microliters of each diluted solution was distributed in the wells of a microplate. A well to which no test chemical was added was used as a control.
A mycoplasma suspension for inoculation prepared as in Test Example 1 was pipetted in an amount of 50 microliters to each of the wells. The microplates were sealed by a plate seal, shaken by a micromixer, and cultivated at 37° C. for 5 days. […] At this time, 3 microliters of the liquid culture was inoculated in drug-free Chanock agar medium by using a Cathra-replicator. The liquid culture and the agar medium were further cultivated at 37° C. for 3 days (anaerobically in the case of M. orale, and aerobically in the case of A. laidlawii and M. arginini). MIC and MMC were determined from the results of observation on the 5th day. MIC was defined as the lowest concentration of the test chemical at which growth of mycoplasma in the drug-containing liquid medium was not noted, and MMC, as that in the drug-free agar medium.

[5] = test system: A. laidlawii PG-8; experiment: Activity of eliminating artificially contaminated mycoplasma from L-929 cells; assay type: cell-based, Acholeplasma laidlawii
Experimental: (§9) Animal cells, experimentally contaminated by mycoplasma, were cultivated for 4 days in a medium containing the test chemical and then sub-cultivated in a medium to which the test chemical was not added in order to determine whether the mycoplasma re-grew (re-contamination).
(§10) (1) Preparation of mycoplasma-contaminated cells
(§11) The mycoplasmas described in Table 3 were each pre-cultivated as in Test Example 1, (1). Two milliliters of the cultures were centifuged at 1,500×g for 30 minutes to separate the mycoplasmas. The isolated mycoplasmas were suspended in 2 ml of 10%-FBS-MEM medium (Eagle's minimum essential medium supplemented with 10% fetal bovine serum and 100 U/ml of penicillin G).
(§12) Separately, mouse fibroblast cells L-929 was suspended in 10%-FBS-MEM medium so that their density became 2.5×10^4 /ml. Four milliliters of the suspension was put in a petri dish (diameter 6 cm) for tissue culture including two circular cover glasses (diameter 1.8 cm), and then 1 ml of the mycoplasma suspension described above was added. The mixture was incubated at 37° C. in 5% CO2 humidified atmosphere for 3 days, and then sub-cultivated twice in order to obtain mycoplasma-contaminated cells. Mycoplasma-contamination was confirmed by the highly specific DNA-fluorochromic staining method (the above cited "Procedures for Isolation and identification of Human, Animal and Plant Mycoplasmas", pages 95-97).
(§13) (2) Experiment of eliminating mycoplasma contamination
(§14) Mycoplasma-contaminated L-929 cells were cultivated as described in the preceding section. A 1,000 μg/ml aqueous solution of a test chemical was prepared, and diluted to predetermined concentrations with Eagle's minimum essential medium. The diluted solutions were added to the culture medium. Two petri dishes were used for each concentration of the test chemical, and two circular cover glasses were put in one of them for examination of mycoplasma. No cover glass was put in the other petri dish, and it was used for subcultivation. Cultivation in the test chemical-containing medium was carried out for 4 days, and thereafter, the cultivation was continued for 3 weeks in a drug-free medium. Medium replacement was effected every 3 to 4 days, and subcultivation was carried out once a week. Examination for mycoplasma contamination was performed on the 4th and 7th days, and thereafter every week. The mycoplasmas were detected by the highly specific DNA-fluorochromic staining method.

[6] = test system: mycoplasma; experiment: Activity of eliminating artificially contaminated mycoplasma from L-929 cells, Test Example 3 as a whole; assay type: cell-based; conditions: for minimal effective concentration: Mycoplasma, L929, 96 h, L-929 cells, 4 days of treatment, read-out: effective concentration for eliminating mycoplasma contamination
Experimental: as §9, §10, §11, §12, §13, §14

Row | Compound | MIC [1] [µg/mL] | MIC [2] [µg/mL] | MIC [3] [µg/mL] | MIC compared with MMC ([4]; Table 2) | mode of action at the MIC ([4]; Table 2) | mycoplasma elimination ([5]; 0.2 μg/ml, day 0) | mycoplasma elimination ([5]; 0.2 μg/ml, day 4) | mycoplasma elimination ([5]; 0.2 μg/ml, day 7) | mycoplasma elimination ([5]; 0.2 μg/ml, day 14) | mycoplasma elimination ([5]; 0.2 μg/ml, day 28) | minimal effective concentration ([6]; both species) [µg/mL] | other results
1 | CC1CN(c2c(F)c(N)c3c(=O)c(C(=O)O)cn(C4CC4)c3c2F)CCN1 (centres unmarked) [Compound 1] | 0.2 (≈ 0.529 µM) | 0.2 (≈ 0.529 µM) | 0.2 (≈ 0.529 µM) | identical with their MMC values | act mycoplasmacidally at the MICs | + | + | + | + | + | 0.39 | mycoplasma elimination ([5]; 0.39 μg/ml, day 0): +; mycoplasma elimination ([5]; 0.39 μg/ml, day 4): -; mycoplasma elimination ([5]; 0.39 μg/ml, day 7): -; mycoplasma elimination ([5]; 0.39 μg/ml, day 14): -; mycoplasma elimination ([5]; 0.39 μg/ml, day 28): -; activity of eliminating mycoplasma contamination ([6]; in words): also showed the activity of eliminating mycoplasma contamination; effective concentration relative to compound A ([6]; in words): twice that of compound A
2 | CN(C)c1ccc(O)c2c1C[C@H]1C[C@H]3[C@H](N(C)C)C(O)=C(C(N)=O)C(=O)[C@@]3(O)C(O)=C1C2=O [Compound 3, minocycline] | 0.1 (≈ 0.219 µM) | 0.1 (≈ 0.219 µM) | 0.1 (≈ 0.219 µM) |  | acts bacteriostatically, and not mycoplasmacidally, at its MIC |  |  |  |  |  |  | mycoplasma elimination ([5]; 12.5 μg/ml, day 0): +; mycoplasma elimination ([5]; 12.5 μg/ml, day 4): -; mycoplasma elimination ([5]; 12.5 μg/ml, day 7): +; mycoplasma elimination ([5]; 12.5 μg/ml, day 14): +; mycoplasma elimination ([5]; 12.5 μg/ml, day 28): +; elimination of mycoplasma and re-growth after removal ([6]; 12.5 μg/ml, 4 days, then drug removed, in words): the cells were mycoplasma-negative after 4 days of cultivation, but when the chemical was removed thereafter, re-growth of mycoplasma was observed
3 | NCC1CN(c2c(F)c(N)c3c(=O)c(C(=O)O)cn(C4CC4)c3c2F)CCO1 (centres unmarked) [Compound A, 5-amino-7-(2-aminomethylmorpholino)-1-cyclopropyl-6,8-difluoro-1,4-dihydro-4-oxoquinoline-3-carboxylic acid] | 0.05 (≈ 0.127 µM) | 0.1 (≈ 0.254 µM) | 0.05 (≈ 0.127 µM) | identical with their MMC values | act mycoplasmacidally at the MICs | + | - | - | - | - | 0.2 | anti-mycoplasmal activity compared with control compounds ([4]; Table 2): better than those of the control compounds; mycoplasmacidal activity, overall ([4]; summary): excellent mycoplasmacidal activity; mycoplasma elimination ([5]; 0.1 μg/ml, day 0): +; mycoplasma elimination ([5]; 0.1 μg/ml, day 4): -; mycoplasma elimination ([5]; 0.1 μg/ml, day 7): +; mycoplasma elimination ([5]; 0.1 μg/ml, day 14): +; mycoplasma elimination ([5]; 0.1 μg/ml, day 28): +; elimination of mycoplasma and re-growth after removal ([6]; 0.2 μg/ml, both species, in words): gave a mycoplasma negative in 4 days from the start of cultivation, and when thereafter subcultivation was performed in the absence of the compound A, no re-growth of mycoplasmas were noted
